Data published in PubChem BioAssay (NCI).
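Cells were grown in 96-well plates and exposed to each compound for 48 hours at five concentrations; endpoints were interpolated linearly between bracketing concentrations, or set to the highest concentration if not reached. The concentration for 50% growth inhibition is given as GI50. The concentration for full growth arrest is given as TGI.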

Experiments:
Assay in all cases: growth of human tumour cells (NCI), 48 h
786-0 renal = tested on: 786-0 renal
A498 renal = tested on: A498 renal
A549 NSCLC = tested on: A549 NSCLC
ACHN renal = tested on: ACHN renal
BT-549 breast = tested on: BT-549 breast
CAKI-1 renal = tested on: CAKI-1 renal
CCRF-CEM leukemia = tested on: CCRF-CEM leukemia
COLO 205 colon = tested on: COLO 205 colon
DU-145 prostate = tested on: DU-145 prostate
HCC-2998 colon = tested on: HCC-2998 colon
HCT-116 colon = tested on: HCT-116 colon
HCT-15 colon = tested on: HCT-15 colon
HL-60(TB) leukemia = tested on: HL-60(TB) leukemia
HOP-62 NSCLC = tested on: HOP-62 NSCLC
HOP-92 NSCLC = tested on: HOP-92 NSCLC
HS 578T breast = tested on: HS 578T breast
HT29 colon = tested on: HT29 colon
IGROV1 ovarian = tested on: IGROV1 ovarian
K-562 leukemia = tested on: K-562 leukemia
KM12 colon = tested on: KM12 colon
LOX IMVI melanoma = tested on: LOX IMVI melanoma
MALME-3M melanoma = tested on: MALME-3M melanoma
MCF7 breast = tested on: MCF7 breast
MDA-MB-231 breast = tested on: MDA-MB-231 breast
MDA-MB-435 = tested on: MDA-MB-435
MOLT-4 leukemia = tested on: MOLT-4 leukemia
NCI-H226 lung = tested on: NCI-H226 lung
NCI-H23 lung = tested on: NCI-H23 lung

`O=C(Cc1ccccc1)NC(c1ccc(Cl)cc1)c1c(O)ccc2ccccc12` (stereo unspecified) was tested, and the GI50 (786-0 renal) was 2870 nM, the TGI (786-0 renal) was 9.76 µM and the GI50 (A498 renal) was 985 nM. The TGI (A498 renal) was 7.72 µM, the GI50 (A549 NSCLC) was 3.68 µM and the TGI (A549 NSCLC) was 13.3 µM. It also gave a GI50 (ACHN renal) of 2550 nM, a TGI (ACHN renal) of 6.9 µM and a GI50 (BT-549 breast) of 3.8 µM. The TGI (BT-549 breast) was 12.8 µM, the GI50 (CAKI-1 renal) was 2520 nM and the TGI (CAKI-1 renal) was 10.2 µM. It also gave a GI50 (CCRF-CEM leukemia) of 3.91 µM, a TGI (CCRF-CEM leukemia) of 26.7 µM and a GI50 (COLO 205 colon) of 1980 nM. The TGI (COLO 205 colon) was 3.48 µM, the GI50 (DU-145 prostate) was 4.68 µM and the TGI (DU-145 prostate) was 17 µM. The GI50 (HCC-2998 colon) was 3.2 µM, the TGI (HCC-2998 colon) was 12.2 µM and the GI50 (HCT-116 colon) was 2170 nM. It also gave a TGI (HCT-116 colon) of 5.16 µM, a GI50 (HCT-15 colon) of 2830 nM and a TGI (HCT-15 colon) of 10.5 µM. The GI50 (HL-60(TB) leukemia) was 2430 nM, the TGI (HL-60(TB) leukemia) was 6.39 µM and the GI50 (HOP-62 NSCLC) was 2840 nM. It also gave a TGI (HOP-62 NSCLC) of 8.57 µM, a GI50 (HOP-92 NSCLC) of 2770 nM and a TGI (HOP-92 NSCLC) of 7.24 µM. For the same compound, the GI50 (HS 578T breast) was 2810 nM, the TGI (HS 578T breast) was 13.8 µM and the GI50 (HT29 colon) was 3.74 µM. The TGI (HT29 colon) was 11.3 µM, the GI50 (IGROV1 ovarian) was 4.67 µM and the TGI (IGROV1 ovarian) was 18.3 µM. It also gave a GI50 (K-562 leukemia) of 3.1 µM, a TGI (K-562 leukemia) of 26.3 µM and a GI50 (KM12 colon) of 3.62 µM. For the same compound, the TGI (KM12 colon) was 11.7 µM, the GI50 (LOX IMVI melanoma) was 3.11 µM and the TGI (LOX IMVI melanoma) was 9.71 µM. For the same compound, the GI50 (MALME-3M melanoma) was 2690 nM, the TGI (MALME-3M melanoma) was 8.22 µM and the GI50 (MCF7 breast) was 2660 nM. The TGI (MCF7 breast) was 9.37 µM, the GI50 (MDA-MB-231 breast) was 1980 nM and the TGI (MDA-MB-231 breast) was 4.73 µM. For the same compound, the GI50 (MDA-MB-435) was 2910 nM, the TGI (MDA-MB-435) was 10.7 µM and the GI50 (MOLT-4 leukemia) was 3.51 µM. It also gave a TGI (MOLT-4 leukemia) of 20.3 µM, a GI50 (NCI-H226 lung) of 3.15 µM and a TGI (NCI-H226 lung) of 12 µM. For the same compound, the GI50 (NCI-H23 lung) was 2920 nM and the TGI (NCI-H23 lung) was 9.2 µM.
